Experimental data from patent publication US4537899A, “Antiviral acylated 1,2,4-triazole derivatives” (BIOGAL Gyogyszergyar, priority 1982, dated 1985).
Converted amounts (≈) assume the structure as drawn.

Columns and labels:
[1] = Oral toxicity (LD50) in rats; conditions: rat, in vivo
[2] = system: Rubeola virus; experiment: Antiviral effect against Rubeola virus at concentrations of CT0 (reduction of TCID50 virus titer); format: cell-based, Rubeola virus (strain Judith); conditions: RK-13 cell cultures, log TCID50 difference of control and test compound
[3] = in vitro; format: cell-based
Protocol: The antiviral testing of the compounds was carried out in two steps. First the dose-response curve of cytotoxicity was plotted, then the antiviral activity was assayed in cell cultures containing nontoxic amounts of the compound.
1. The cytotoxicity of the compounds was assayed in HeLa and RK-13 cell cultures by quantitating the protein content of the cells [S. Horvath: Cytotoxicity of drugs and diverse chemical agents to cell cultures, Toxicology, 16, 59 (1980)]. From the data of the dose-response curve the 50 percent cytotoxic concentration of the compounds was determined (CT50), i.e. the concentration inhibiting cell proliferation by 50 percent. Similarly from the data of the dose-response curve the highest concentration of the compounds where cell proliferation compared to the control is not inhibited at all, can be determined, too (0 percent cytotoxic concentration, CT0). To simplify matters, in the Table the logarithm of these values is summarized (i.e. log CT0 =1 representing a concentration of 10 μg/ml).

CSc1n[nH]c(NC(=O)c2ccccc2C)n1 [Example 47, 3-methylthio-5-(2-methyl-benzoyl-amino)-1H-1,2,4-triazole]
LD50 [1]: 3200 mg/kg | Δlog TCID50 [2]: ≥ 6.8 | CC50 ([3]; human, hela cells): 100 µg/mL (≈ 403 µM) | MNTC ([3]; human, hela cells): 39.8 µg/mL | CC50 ([3]; rabbit, rk-13 cells): 79.4 µg/mL (≈ 320 µM) | MNTC ([3]; rabbit, rk-13 cells): 12.6 µg/mL

CSc1n[nH]c(NC(=O)c2ccccc2Br)n1 [Example 53, 3-methylthio-5-(2-bromo-benzoyl-amino)-1H-1,2,4-triazole]
Δlog TCID50 [2]: ≥ 6.8 | CC50 ([3]; human, hela cells): 126 µg/mL (≈ 402 µM) | MNTC ([3]; human, hela cells): 39.8 µg/mL | CC50 ([3]; rabbit, rk-13 cells): 79.4 µg/mL (≈ 254 µM) | MNTC ([3]; rabbit, rk-13 cells): 25.1 µg/mL

CSc1n[nH]c(NC(=O)c2ccccc2[N+](=O)[O-])n1 [Example 61, 3-methylthio-5-(2-nitro-benzoyl-amino)-1H-1,2,4-triazole]
Δlog TCID50 [2]: 3.0 | CC50 ([3]; human, hela cells): 39.8 µg/mL (≈ 143 µM) | MNTC ([3]; human, hela cells): 10 µg/mL | CC50 ([3]; rabbit, rk-13 cells): 63.1 µg/mL (≈ 226 µM) | MNTC ([3]; rabbit, rk-13 cells): 15.8 µg/mL

CSc1n[nH]c(NC(=O)c2ccccc2Cl)n1 [Example 63, 3-methylthio-5-(2-chloro-benzoyl-amino)-1H-1,2,4-triazole]
Δlog TCID50 [2]: ≥ 5.3 | CC50 ([3]; human, hela cells): 50.1 µg/mL (≈ 187 µM) | MNTC ([3]; human, hela cells): 7.94 µg/mL | CC50 ([3]; rabbit, rk-13 cells): 79.4 µg/mL (≈ 296 µM) | MNTC ([3]; rabbit, rk-13 cells): 15.8 µg/mL

CSc1n[nH]c(NC(=O)c2ccccc2SC)n1 [Example 70, 3-methylthio-5-(2-methylthio-benzoyl-amino)-1H-1,2,4-triazole]
Δlog TCID50 [2]: ≥ 5.3 | CC50 ([3]; human, hela cells): 79.4 µg/mL (≈ 283 µM) | MNTC ([3]; human, hela cells): 20 µg/mL | CC50 ([3]; rabbit, rk-13 cells): 50.1 µg/mL (≈ 179 µM) | MNTC ([3]; rabbit, rk-13 cells): 15.8 µg/mL

CCSc1n[nH]c(NC(=O)c2ccccc2C)n1 [Example 73, 3-ethylthio-5-(2-methyl-benzoyl-amino)-1H-1,2,4-triazole]
Δlog TCID50 [2]: ≥ 6.0 | CC50 ([3]; human, hela cells): 50.1 µg/mL (≈ 191 µM) | MNTC ([3]; human, hela cells): 7.94 µg/mL
